Experimental data taken from patent publication US20060100431A1, “Biologically active compounds” (Amura Therapeutics Limited, priority 2002, published 2006).

The compounds below were run against Wild-type cruzipain (Trypanosoma cruzi, UniProt P25779) (assay: Trypanosoma cruzi cruzipain peptidase activity assay (Ki)). Conditions: read-out: Ki, inhibitors of cruzain and cruzipains.
Assay type: biochemical
Description: Unless otherwise stated, all general chemicals and biochemicals were purchased from either the Sigma Chemical Company, Poole, Dorset, U.K or from Fisher Scientific UK, Loughborough, Leicestershire, U.K. Absorbance assays were carried out in flat-bottomed 96-well plates (Spectra; Greiner Bio-One Ltd., Stonehouse, Gloucestershire, U.K.) using a SpectraMax PLUS384 plate reader (Molecular Devices, Crawley, U.K.). Fluorescence high throughput assays were carried out in either 384-well microtitre plates (Corning Costar 3705 plates, Fisher Scientific) or 96-well ‘U’ bottomed Microfluor W1 microtitre plates (Thermo Labsystems, Ashford, Middlesex, U.K.). Fluorescence assays were monitored using a SpectraMax Gemini fluorescence plate reader (Molecular Devices). For substrates employing either a 7-amino-4-methylcoumarin (AMC) or a 7-amino-4-trifluoromethylcoumarin (AFC) fluorophore, assays were monitored at an excitation wavelength of 365 nm and an emission wavelength of 450 nm and the fluorescence plate reader calibrated with AMC. For substrates employing a 3-amino-benzoyl (Abz) fluorophore, assays were monitored at an excitation wavelength of 310 nm and an emission wavelength of 445 nm; the fluorescence plate reader calibrated with 3-amino-benzamide (Fluka). Unless otherwise indicated, all the peptidase substrates were purchased from Bachem UK, St Helens, Merseyside, UK. Substrates utilizing fluorescence resonance energy transfer methodology (i.e. FRET-based substrates) were synthesized at Incenta Limited using published methods (Atherton & Sheppard, Solid Phase Peptide Synthesis, IRL Press, Oxford, U.K, 1989) and employed Abz (2-aminobenzoyl) as the fluorescence donor and 3-nitro-tyrosine [Tyr(NO2)] as the fluorescence quencher (Meldal, M. and Breddam, K., Anal. Biochem, 195, 141-147, 1991). Hydroxyethylpiperazine ethanesulfonate (HEPES), tris-hydroxylmethyl aminomethane (tris) base, bis-tris-propane and all the biological detergents (e.g. CHAPS, zwittergents, etc.) were purchased from CN Biosciences UK, Beeston, Nottinghamshire, U.K. Glycerol was purchased from Amersham Pharmacia Biotech, Little Chalfont, Buckinghamshire, U.K. Stock solutions of substrate or inhibitor were made up to 10 mM in 100% dimethylsulfoxide (DMSO) (Rathburns, Glasgow, U.K.) and diluted as appropriately required. In all cases the DMSO concentration in the assays was maintained at less than 1% (vol./vol.).
Assay protocols were based on literature precedent (Table 4; Barrett, A. J., Rawlings, N. D. and Woessner, J. F., 1998, Handbook of Proteolytic Enzymes, Academic Press, London and references therein) and modified as required to suit local assay protocols. Enzyme was added as required to initiate the reaction and the activity, as judged by the change in fluorescence upon conversion of substrate to product, was monitored over time. All assays were carried out at 25±1° C.
Wild-type cruzipain, derived from Trypanosoma cruzi Dm28 epimastigotes, was obtained from Dr. Julio Scharfstein (Instituto de Biofisica Carlos Chagas Filho, Universidade Federal do Rio de Janeiro, Rio de Janeiro, Brazil). Activity assays were carried out in 100 mM sodium phosphate, pH 6.75 containing 1 mM EDTA and 10 mM L-cysteine using 2.5 nM enzyme. […] The rate of conversion of substrate to product was derived from the slope of the increase in fluorescence monitored continuously over time.
The apparent inhibition constant (Ki) for each compound was determined on the basis that inhibition was reversible and occurred by a pure-competitive mechanism. The Ki values were calculated, from the dependence of enzyme activity as a function of inhibitor concentration, by direct regression analysis (Prism v 3.02) using Equation 2 (Cornish-Bowden, A., 1995.). [formula]

Sequence of Wild-type cruzipain (P25779 whole entry): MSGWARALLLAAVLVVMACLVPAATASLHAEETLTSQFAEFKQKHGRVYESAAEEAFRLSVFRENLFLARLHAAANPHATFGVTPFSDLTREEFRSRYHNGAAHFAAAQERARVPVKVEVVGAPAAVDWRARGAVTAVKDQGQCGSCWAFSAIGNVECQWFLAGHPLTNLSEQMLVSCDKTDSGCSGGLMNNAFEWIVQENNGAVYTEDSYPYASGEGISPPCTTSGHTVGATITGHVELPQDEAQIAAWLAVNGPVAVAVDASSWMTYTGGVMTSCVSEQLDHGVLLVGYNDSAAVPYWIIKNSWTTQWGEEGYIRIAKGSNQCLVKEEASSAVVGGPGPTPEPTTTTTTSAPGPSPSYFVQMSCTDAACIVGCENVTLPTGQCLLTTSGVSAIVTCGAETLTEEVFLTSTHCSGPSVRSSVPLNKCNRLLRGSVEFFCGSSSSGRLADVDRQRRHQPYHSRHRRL

| Ki [µM] | Structure (SMILES) |
| --- | --- |
| < 5 | CCC[C@H](NC(=O)c1ccc(N(C)C)cc1)C(=O)N1CC[C@@H]2[C@H]1C(=O)CN2C(=O)c1ccccc1 [Example 196, (3aR,6aS)-N-[(1S)-1-(4-Benzoyl-6-oxo-hexahydro-pyrrolo[3,2-b]pyrrole-1-carbonyl)-butyl]-4-dimethylamino-benzamide] |
| < 5 | CC(=O)N[C@@H](C)C(=O)N1CC(=O)[C@@H]2[C@H]1CCN2C(=O)[C@H](CC(C)C)NC(=O)c1ccc(N(C)C)cc1 [Example 197, (3aR,6aS)-N-{(1S)-1-[4-((2S)-2-Acetylamino-propionyl)-6-oxo-hexahydro-pyrrolo[3,2-b]pyrrole-1-carbonyl]-3-methyl-butyl}-4-dimethylamino-benzamide] |
| < 5 | CC[C@H](N)C(=O)N1CC(=O)[C@@H]2[C@H]1CCN2C(=O)[C@H](CC(C)C)NC(=O)c1ccc(N(C)C)cc1 [Example 203, (3aR,6aS)-N-{(1S)-1-[4-((2S)-2-Amino-butyryl)-6-oxo-hexahydro-pyrrolo[3,2-b]pyrrole-1-carbonyl]-3-methyl-butyl}-4-dimethylamino-benzamide] |
| < 5 | CC(C)C[C@H](NC(=O)c1ccc(N(C)C)cc1)C(=O)N1CC[C@@H]2[C@H]1C(=O)CN2C(=O)[C@@H](N)C(C)C [Example 205, (3aR,6aS)-N-{(1S)-1-[4-((2S)-2-Amino-3-methyl-butyryl)-6-oxo-hexahydro-pyrrolo[3,2-b]pyrrole-1-carbonyl]-3-methyl-butyl}-4-dimethylamino-benzamide] |
| < 5 | CCC[C@H](N)C(=O)N1CC(=O)[C@@H]2[C@H]1CCN2C(=O)[C@H](CC(C)C)NC(=O)c1ccc(N(C)C)cc1 [Example 210, (3aR,6aS)-N-{(1S)-1-[4-((2S)-2-Amino-pentanoyl)-6-oxo-hexahydro-pyrrolo[3,2-b]pyrrole-1-carbonyl]-3-methyl-butyl}-4-dimethylamino-benzamide] |

Second part, the compound before the results:

| Structure (SMILES) | Ki [µM] |
| --- | --- |
| CC(=O)NCC(=O)N1CC(=O)[C@@H]2[C@H]1CCN2C(=O)[C@H](CC(C)C)NC(=O)c1ccc(N(C)C)cc1 [Example 199, (3aR,6aS)-N-{(1S)-1-[4-(2-Acetylamino-acetyl)-6-oxo-hexahydro-pyrrolo[3,2-b]pyrrole-1-carbonyl]-3-methyl-butyl}-4-dimethylamino-benzamide] | < 5 |
| CNCC(=O)N1CC(=O)[C@@H]2[C@H]1CCN2C(=O)[C@H](CC(C)C)NC(=O)c1ccc(N(C)C)cc1 [Example 200, (3aR,6aS)-4-Dimethylamino-N-{(1S)-3-methyl-1-[4-(2-methylamino-acetyl)-6-oxo-hexahydro-pyrrolo[3,2-b]pyrrole-1-carbonyl]-butyl}-benzamide] | < 5 |
| CC(C)C[C@H](NC(=O)c1ccc(N(C)C)cc1)C(=O)N1CC[C@@H]2[C@H]1C(=O)CN2C(=O)[C@@H](N)CO [Example 206, (3aR,6aS)-N-{(1S)-1-[((2S)-2-Amino-3-hydroxy-propionyl)-6-oxo-hexahydro-pyrrolo[3,2-b]pyrrole-1-carbonyl]-3-methyl-butyl}-4-dimethylamino-benzamide] | < 5 |
| CC(C)C[C@H](NC(=O)c1ccc(N(C)C)cc1)C(=O)N1CC[C@@H]2[C@H]1C(=O)CN2C(=O)[C@@H]1CCCCN1 [Example 217, (3aR,6aS)-4-Dimethylamino-N-{(1S)-3-methyl-1-[6-oxo-4-((2S)-piperidine-2-carbonyl)-hexahydro-pyrrolo[3,2-b]pyrrole-1-carbonyl]-butyl}-benzamide] | < 5 |
| CC(C)C[C@H](NC(=O)c1ccc(N(C)C)cc1)C(=O)N1CC[C@@H]2[C@H]1C(=O)CN2C(=O)[C@@H]1C[C@@H](O)CN1 [Example 218, (3aR,6aS)-4-Dimethylamino-N-{(1S)-1-[4-((2S,4R)-4-hydroxy-pyrrolidine-2-carbonyl)-6-oxo-hexahydro-pyrrolo[3,2-b]pyrrole-1-carbonyl]-3-methyl-butyl}-benzamide] | < 5 |
